Measurements as given in ChEMBL document CHEMBL5728709, “Indazole derivatives useful as inhibitors of diacylglyceride O-acyltransferase 2” (2021).

Biological target: T1, Diacylglycerol O-acyltransferase 2 (Homo sapiens, UniProt Q96PD7)
T1 sequence (Q96PD7 whole entry): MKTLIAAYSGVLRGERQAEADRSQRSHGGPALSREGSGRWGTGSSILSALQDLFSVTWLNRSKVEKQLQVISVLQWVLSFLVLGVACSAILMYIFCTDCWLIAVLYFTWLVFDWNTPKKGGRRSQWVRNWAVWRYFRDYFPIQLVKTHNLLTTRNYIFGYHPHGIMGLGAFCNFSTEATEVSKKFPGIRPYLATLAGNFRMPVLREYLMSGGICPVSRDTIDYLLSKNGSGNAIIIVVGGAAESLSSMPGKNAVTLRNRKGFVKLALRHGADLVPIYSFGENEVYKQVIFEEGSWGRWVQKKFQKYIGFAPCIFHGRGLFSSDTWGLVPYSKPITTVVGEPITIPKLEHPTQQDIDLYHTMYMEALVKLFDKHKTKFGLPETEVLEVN
Assay: Enzymatic Activity Assay: DGAT2 activity was determined by measuring the amount of enzymatic product triolein (1,2,3-Tri(cis-9-octadecenoyl)glycerol) using the membrane prep mentioned above. The assay was carried out in deep well 384 plates in a final volume of 40 μL at room temperature. The assay mixture contained the following: assay buffer (100 mM Tris.Cl, pH 7.0, 20 mM MgCl2, 5% ethanol), 25 μM of diolein, 10 μM of oleoyl-CoA and 10 ng/μL of DGAT2 membrane.

CC(C)(C)OC(=O)N1C[C@@H](O)[C@H](NC(=O)c2ccc3c(-c4ccccc4Cl)nn(-c4ccc(F)cc4)c3c2)C1
IC50: 0.205 µM
